How the values were obtained:
[1] = comparator from the literature (Mikkola 2004); cited from earlier work
[2] = system: cytarabine-resistant human leukemic lymphoblast CEM/araC/8 cells; experiment: MTT cytotoxicity assay, CEM/araC/8; assay type: cell-based; details: 72-hour treatment
Description: (§1) Human breast carcinoma MCF-7, human hepatocellular carcinoma HepG2, and human prostate adenocarcinoma PC-3 cells were obtained from ATCC (Rockville, Md.). These cells were maintained in Dulbecco's Modified Eagle Medium (DMEM) supplemented with 10% fetal bovine serum (FBS), 1% L-glutamine, and 2% penicillin-streptomycin at 37° C. in a humidified atmosphere containing 5% CO2. […] These cells were maintained in DMEM/Nutrient mixture F-12 (DMEM/F12) with similar supplements and serum as above. […] They were grown in the presence of 2 μM gemcitabine. […] Galmarini (UFR Lyon-Sud, Oullins, France). The cells were grown in the presence of 0.5 μM cytarabine (araC). […]
(§2) Cytotoxicity of the polymeric conjugates was analyzed in different cancer cell lines by a standard MTT assay. […] Samples were incubated in full medium for 72 hours at 37° C., and the metabolic activity of each sample was determined by adding 20 μL of a 5 mg/mL of MTT stock solution in sterile PBS buffer to each well. […] Optical absorbance was measured at 560 nm using a model 680 microplate reader (BioRad, Hercules, Calif.) and cytotoxicity was expressed as a percentage of survived cells relative to nontreated control cells. All samples were analyzed by an average of eight measurements (means±SEM).

[3] = system: human prostate adenocarcinoma PC-3 cells; experiment: MTT cytotoxicity assay, PC-3; assay type: cell-based; details: 72-hour treatment
Description: as §1, §2

[4] = system: human breast carcinoma MCF-7 cells; experiment: MTT cytotoxicity assay, MCF-7; assay type: cell-based; details: MCF7, 72-hour treatment
Description: as §1, §2

[5] = system: human hepatocellular carcinoma HepG2 cells; experiment: MTT cytotoxicity assay, HepG2; assay type: cell-based; details: 72-hour treatment, read-out: IC50 values, Hep G2
Description: as §1, §2

[6] = system: human breast carcinoma MDA-MB-231 cells; experiment: MTT cytotoxicity assay, MDA-MB-231; assay type: cell-based; details: 72-hour treatment
Description: as §1, §2

[7] = system: gemcitabine-resistant human follicular lymphoma RL7/G cells; experiment: MTT cytotoxicity assay, RL7/G; assay type: cell-based; details: 72-hour treatment
Description: as §1, §2

Nc1ncnc2c1ncn2[C@@H]1O[C@H](COP(=O)(O)OP(=O)(O)OP(=O)(O)OP(=O)(O)OC[C@H]2O[C@@H](n3cnc4c(N)ncnc43)[C@H](O)[C@@H]2O)[C@@H](O)[C@H]1O [diadenosine-P1,P4-tetraphosphate]
drug release time [1]: 3 days

Nc1ccn([C@@H]2O[C@H](CO)[C@@H](O)[C@@H]2O)c(=O)n1 [Cytarabine (araC), arabinosylcytosine]
IC50 [2]: 1.23 mM

O=c1[nH]c(=O)n([C@H]2C[C@H](O)[C@@H](CO)O2)cc1F [Floxuridine (FdU), 5-fluoro-2′-deoxyuridine]
IC50 [3]: 0.0065 mM
IC50 [4]: 12.2 mM
IC50 [5]: 2.19 mM
IC50 [6]: 0.0142 mM

Nc1ccn([C@@H]2O[C@H](CO)[C@@H](O)C2(F)F)c(=O)n1 [Gemcitabine (G), 2,2′-difluorocytidine]
IC50 [7]: 19 mM
